Laboratory results as given in patent US9278930B2, “Methods for increasing the stabilization of hypoxia inducible factor-α” (Aerpio Therapeutics Inc., priority 2009, dated 2016).
Read-outs that look alike come from different tables or passages of the source. Each block holds one compound with its values, some of them ahead of it.

Key:
[1] = Solubility of salts in water (HPLC); format: physicochemical
Protocol: The formulator can determine the solubility of the pharmaceutically acceptable salts of the disclosed inhibitors by any method desirable. The following is a non-limiting example of a procedure for evaluating the solubility of a salt of a disclosed inhibitor. A suspension of tert-butyl-{[1-(4-chlorobenzyl)-3-hydroxy-2-oxo-1,2-dihydropyridin-4-yl]methyl}-piperazine-1-carboxylate methanesulfonate (26.6 mg) in distilled deionized water (3.0 mL) is sonicated for 20 min with water bath temperature under 25° C. The suspension is filtered to remove any insoluble salt. The clear filtrate solution (200 μL) is diluted with distilled deionized water (800 μL) and subjected to HPLC analysis. The following are results for the pharmaceutically acceptable salts outlined in Table VII above.

[2] = system: phosphoglycerate kinase (PGK) expression; assay: PGK expression in murine embryonic fibroblasts; format: cell-based; details: wild type murine embryonic fibroblasts; 1 μM, 10 μM (FIG. 12)
Protocol: FIG. 11 depicts the up regulation of phosphoglycerate kinase (PGK) expression in wild type murine embryonic fibroblasts as a result of treatment with compound a compound disclosed in Table VIII at dosages of 1 μM (E), 10 μM (F), and 50 μM (G) vs. wild type control (H) and the lack of up regulation of PGK expression in HIF-1 knock out cells as a result of treatment with a compound disclosed in Table VIII at dosages of 1 μM (A), 10 μM (B), and 50 μM (C) and HIF-1 knock out control (D). Both cell types were treated for 7 hours.

Compound: CC(C)(C)OC(=O)N1CCN(Cc2ccn(Cc3ccc(Cl)cc3)c(=O)c2O)CC1 [Compound A41, tert-butyl 4-{[1-(4-chlorobenzyl)-3-hydroxy-2-oxo-1,2-dihydropyridin-4-yl]methyl}piperazine-1-carboxylate]
Solubility ([1]; distilled deionized water, sonicated 20 min, under 25° C., HPLC, listed as Free base): ~1 µg/mL

up regulation of phosphoglycerate kinase (PGK) expression [2]: up regulation
Compound: O=c1c(O)cccn1Cc1cccc(Cl)c1 [Compound F2, 1-(3-chlorobenzyl)-3-hydroxypyridin-2(1H)-one]

Compound: CC(C)(C)OC(=O)N1CCN(Cc2ccn(Cc3ccc(Cl)cc3)c(=O)c2O)CC1 [hydrogensulfonate, tert-butyl-{[1-(4-chlorobenzyl)-3-hydroxy-2-oxo-1,2-dihydropyridin-4-yl]methyl}-piperazine-1-carboxylate]
Solubility [1]: 13200 µg/mL
